Source: ChEMBL document CHEMBL6114955, “Probing into the plasma stability and microsomal stability of thiol-based prodrug derivatives: Using IYS-15, an HDAC inhibitor as the model thiol” (Bioorg Med Chem, 2025)

Assays:
[1] = Metabolic stability in human liver microsomes assessed as half life in presence of NADPH measured upto 60 mins in presence of 8 uM quinidine by LC-MS/MS analysis; assay type: ADME, Microsome; details: with quinidine
[2] = Metabolic stability in human liver microsomes assessed as intrinsic clearance measured per mg of protein in presence of NADPH measured upto 60 mins in presence of 10 uM montelukast by LC-MS/MS analysis; assay type: ADME, Microsome; details: 1 h
[3] = Stability in human plasma assessed as half life at pH 7.4 measured upto 5 hrs by LC-MS/MS analysis; assay type: ADME, cell-free
[4] = Metabolic stability in human liver microsomes assessed as intrinsic clearance measured per mg of protein in presence of NADPH measured upto 60 mins in presence of 50 uM furafylline by LC-MS/MS analysis; assay type: ADME, Microsome; details: 1 h
[5] = Metabolic stability in human liver microsomes assessed as half life in presence of NADPH measured upto 60 mins in presence of 5 mM BNPP carboxylesterase inhibitor by LC-MS/MS analysis; assay type: ADME, Microsome; details: with BNPP (carboxylesterase inhibitor)
[6] = Metabolic stability in human liver microsomes assessed as intrinsic clearance measured per mg of protein in presence of NADPH measured upto 60 mins in presence of 2 uM ticlopidine by LC-MS/MS analysis; assay type: ADME, Microsome; details: 1 h
[7] = Metabolic stability in human liver microsomes assessed as half life in presence of NADPH measured upto 60 mins in presence of 10 uM sulfaphenazole by LC-MS/MS analysis; assay type: ADME, Microsome; details: with sulfaphenazole
[8] = Metabolic stability in human liver microsomes assessed as half life in presence of NADPH measured upto 60 mins in presence of 10 uM montelukast by LC-MS/MS analysis; assay type: ADME, Microsome; details: with montelukast
[9] = Metabolic stability in human liver microsomes assessed as intrinsic clearance measured per mg of protein in presence of NADPH measured upto 60 mins in presence of 2 uM ketoconazole by LC-MS/MS analysis; assay type: ADME, Microsome; details: 1 h
[10] = Metabolic stability in human liver microsomes assessed as intrinsic clearance measured per mg of protein in presence of NADPH measured upto 60 mins in presence of 10 uM sulfaphenazole by LC-MS/MS analysis; assay type: ADME, Microsome; details: 1 h
[11] = Metabolic stability in human liver microsomes assessed as half life in presence of NADPH measured upto 60 mins in presence of 2.5 mM ABT cytochrome P450 inhibitor by LC-MS/MS analysis; assay type: ADME, Microsome; details: with ABT (cytochrome P450 inhibitor)
[12] = Ratio of half life in human liver microsomes in presence of BNPP to t1/2 in human liver microsomes absence of BNPP; assay type: ADME, Microsome
[13] = Metabolic stability in human liver microsomes assessed as half life in presence of NADPH measured upto 60 mins in presence of 2 uM ticlopidine by LC-MS/MS analysis; assay type: ADME, Microsome; details: with ticlopidine
[14] = Metabolic stability in human liver microsomes assessed as half life in presence of NADPH measured upto 60 mins by LC-MS/MS analysis; assay type: ADME, Microsome
[15] = Metabolic stability in human liver microsomes assessed as half life in presence of NADPH measured upto 60 mins in presence of 2 uM ketoconazole by LC-MS/MS analysis; assay type: ADME, Microsome; details: with ketoconazole
[16] = Ratio of half life in human liver microsomes in presence of ABT to t1/2 in human liver microsomes absence of ABT; assay type: ADME, Microsome
[17] = Metabolic stability in human liver microsomes assessed as half life in presence of NADPH measured upto 60 mins in presence of 50 uM furafylline by LC-MS/MS analysis; assay type: ADME, Microsome; details: with furafylline
[18] = Metabolic stability in human liver microsomes assessed as intrinsic clearance measured per mg of protein in presence of NADPH measured upto 60 mins in presence of 8 uM quinidine by LC-MS/MS analysis; assay type: ADME, Microsome; details: 1 h

SMILES | half-life [1] | CLint [2] | half-life [3] | CLint [4] | half-life [5] | CLint [6] | half-life [7] | half-life [8] | CLint [9] | CLint [10] | half-life [11] | Ratio [12] | half-life [13] | half-life [14] | half-life [15] | Ratio [16] | half-life [17] | CLint [18]
CCCCCNC(=O)SCCCCCCC(=O)Nc1nc(-c2ccc(F)cc2)cs1 |  |  | > 300 min |  |  |  |  |  |  |  |  |  |  | 5.5 min |  |  |  | 
O=C(CCCCCCSC(=O)N1CCCC1)Nc1nc(-c2ccc(F)cc2)cs1 |  |  | > 300 min |  |  |  |  |  |  |  |  |  |  | 11.4 min |  |  |  | 
O=C(CCCCCCSC(=O)c1ccccc1)Nc1nc(-c2ccc(F)cc2)cs1 |  |  | > 300 min |  | 36.3 min |  |  |  |  |  | 5.78 min | 4.63 |  | 2.34 min |  | 0.74 |  | 
O=C(CCCCCCSC(=O)Cc1ccccc1)Nc1nc(-c2ccc(F)cc2)cs1 |  |  | > 160 min |  |  |  |  |  |  |  |  |  |  | 2.14 min |  |  |  | 
O=C(CCCCCCSP(=O)(c1ccccc1)c1ccccc1)Nc1nc(-c2ccc(F)cc2)cs1 |  |  | > 300 min |  | 24.5 min |  |  |  |  |  | 34.2 min | 26.7 |  | 0.92 min |  | 37.24 |  | 
COc1ccc(C(=O)SCCCCCCC(=O)Nc2nc(-c3ccc(F)cc3)cs2)cc1 |  |  | > 300 min |  |  |  |  |  |  |  |  |  |  | 10.8 min |  |  |  | 
CNC(=O)SCCCCCCC(=O)Nc1nc(-c2ccc(F)cc2)cs1 | 7.28 min | 203 µL/min/mg | > 300 min | 296 µL/min/mg | 54.9 min | 283 µL/min/mg | 7.61 min | 10.4 min | 115 µL/min/mg | 276 µL/min/mg | 68.3 min | 8.53 | 7.42 min | 4.81 min | 18.2 min | 10.62 | 7.1 min | 288 µL/min/mg
COC(=O)SCCCCCCC(=O)Nc1nc(-c2ccc(F)cc2)cs1 |  |  | > 300 min |  | 28.2 min |  |  |  |  |  | 0.85 min | 35.87 |  | 0.79 min |  | 1.09 |  | 
O=C(CCCCCCSSCCCCCCC(=O)Nc1nc(-c2ccc(F)cc2)cs1)Nc1nc(-c2ccc(F)cc2)cs1 |  |  | 247 min |  |  |  |  |  |  |  |  |  |  |  |  |  |  | 
CCCCSSCCCCCCC(=O)Nc1nc(-c2ccc(F)cc2)cs1 |  |  | > 300 min |  | 10.1 min |  |  |  |  |  | 16.9 min | 1.66 |  | 6.08 min |  | 2.78 |  | 
CCOP(=O)(OCC)SCCCCCCC(=O)Nc1nc(-c2ccc(F)cc2)cs1 |  |  | > 300 min |  | 54.5 min |  |  |  |  |  | 24.5 min | 18.22 |  | 2.14 min |  | 8.2 |  | 
CC(=O)SCCCCCCC(=O)Nc1nc(-c2ccc(F)cc2)cs1 |  |  | 151 min |  | 5.78 min |  |  |  |  |  | 0.53 min | 10.1 |  | 0.57 min |  | 0.93 |  | 
CC(C)(C)C(=O)SCCCCCCC(=O)Nc1nc(-c2ccc(F)cc2)cs1 |  |  | > 300 min |  |  |  |  |  |  |  |  |  |  | 4.11 min |  |  |  | 
CCC(=O)SCCCCCCC(=O)Nc1nc(-c2ccc(F)cc2)cs1 |  |  | 160 min |  | 9.11 min |  |  |  |  |  | 0.56 min | 7.77 |  | 1.17 min |  | 0.48 |  | 
CC(C)(C)SSCCCCCCC(=O)Nc1nc(-c2ccc(F)cc2)cs1 |  |  | > 300 min |  | 15.8 min |  |  |  |  |  | 26.7 min | 1.26 |  | 12.5 min |  | 2.13 |  | 
COP(=O)(OC)SCCCCCCC(=O)Nc1nc(-c2ccc(F)cc2)cs1 |  |  | > 300 min |  | 165 min |  |  |  |  |  | 44 min | 16.8 |  | 9.85 min |  | 4.46 |  | 

Second part, the compound after the results:

half-life [1] | CLint [2] | half-life [3] | CLint [4] | half-life [5] | CLint [6] | half-life [7] | half-life [8] | CLint [9] | CLint [10] | half-life [11] | Ratio [12] | half-life [13] | half-life [14] | half-life [15] | Ratio [16] | half-life [17] | CLint [18] | SMILES
8.68 min | 150 µL/min/mg | > 300 min | 253 µL/min/mg | 81.4 min | 260 µL/min/mg | 9.66 min | 14 min | 93 µL/min/mg | 218 µL/min/mg | 65.8 min | 9.53 | 8.09 min | 6.81 min | 22.5 min | 7.71 | 8.31 min | 243 µL/min/mg | CC(=O)NCSCCCCCCC(=O)Nc1nc(-c2ccc(F)cc2)cs1
 |  | > 300 min |  |  |  |  |  |  |  |  |  |  | 11.9 min |  |  |  |  | CCCCCCSSCCCCCCC(=O)Nc1nc(-c2ccc(F)cc2)cs1
1.15 min | 1680 µL/min/mg | > 300 min | 1380 µL/min/mg | 17.1 min | 1520 µL/min/mg | 1.53 min | 1.25 min | 67 µL/min/mg | 1370 µL/min/mg | 81.1 min | 2.03 | 1.39 min | 1.27 min | 31.5 min | 9.6 | 1.52 min | 1840 µL/min/mg | CC(C)N(C(=O)SCCCCCCC(=O)Nc1nc(-c2ccc(F)cc2)cs1)C(C)C
 |  | 179 min |  |  |  |  |  |  |  |  |  |  |  |  |  |  |  | CCCCC(=O)SCCCCCCC(=O)Nc1nc(-c2ccc(F)cc2)cs1
1.43 min | 1140 µL/min/mg | > 300 min | 1490 µL/min/mg | 27.6 min | 1520 µL/min/mg | 1.41 min | 1.84 min | 74 µL/min/mg | 1490 µL/min/mg | 211 min | 13.27 | 1.38 min | 1.75 min | 28.5 min | 101.23 | 1.41 min | 1470 µL/min/mg | CC(C)(C)C(=O)NCSCCCCCCC(=O)Nc1nc(-c2ccc(F)cc2)cs1
 |  | > 300 min |  | 14.5 min |  |  |  |  |  | 3.82 min | 2.52 |  | 5.77 min |  | 0.66 |  |  | O=C(CCCCCCSC(=O)c1ccc(C(F)(F)F)cc1)Nc1nc(-c2ccc(F)cc2)cs1
3.11 min | 365 µL/min/mg | > 300 min | 708 µL/min/mg | 22.8 min | 737 µL/min/mg | 2.94 min | 5.76 min | 351 µL/min/mg | 716 µL/min/mg | 114 min | 5.32 | 2.85 min | 3.09 min | 5.99 min | 26.54 | 2.98 min | 675 µL/min/mg | CN(C)C(=O)SCCCCCCC(=O)Nc1nc(-c2ccc(F)cc2)cs1
 |  | > 300 min |  |  |  |  |  |  |  |  |  |  | 11.4 min |  |  |  |  | O=C(CCCCCCSC(=O)c1ccc2c(c1)OCCO2)Nc1nc(-c2ccc(F)cc2)cs1
 |  | > 300 min |  |  |  |  |  |  |  |  |  |  | 18.9 min |  |  |  |  | O=C(CCCCCCSSC1CCCCC1)Nc1nc(-c2ccc(F)cc2)cs1
